Experimental data reported in patent publication US12637414B2, “Arylamides and methods of use thereof” (Genzyme Corporation, priority 2019, dated 2026).

Molecular target: T1, human Cystic Fibrosis Transmembrane Conductance Regulator (CFTR) harboring the ΔF508 mutation (Homo sapiens, UniProt P13569, DEL508-508)
T1 construct: expressed in transfected cells; host or cells: H441 carcinoma line (G418 selection)
Test: H441 cell Emax and EC50: HRP-tagged ΔF508-CFTR cell surface luminescence assay
Type: cell-based
Settings: H441 cells expressing ΔF508-CFTR-HRP, 27° C., two nights; for EC50: 15-point dose-response, top 24.5 μM; for Emax: NCI-H441, % of maximum VX809 signal
Excerpt: Two cell lines were used, the H441 carcinoma line and the CFHBE41o-(41o-) human bronchial epithelial line. Both cell lines expressed human Cystic Fibrosis Transmembrane Conductance Regulator (CFTR) harboring the ΔF508 mutation and with an in-frame fusion in CFTR extracellular loop 4 of Horse Radish Peroxidase (HRP) under control of the CMV promoter. In the presence of the HRP tag, ΔF508-CFTR transported to the cell surface was detectable upon addition of an HRP substrate (Luminata Forte). Both cell types were cultivated at 37° C. with CO2.
For both cell types, the medium was changed every other day unless the culture was at low % confluence. Cells were used for the assays at ˜75% confluence.
To a polypropylene (PP) 384-well plate, 15 μls DMSO was added to all wells in columns 1-22 and 24 (low Control). 15 μls of 260 μM VX809 (Lumacaftor), Selleckchem S1565, was added to column 23 wells (high Control). 15 μls of 10 mM test compound or VX809 (control) were added to wells of row A. Serial dilutions of Row A compound were performed 2×15 μls in rows A through O (15-point).
A PP, 384-well plate containing the appropriate cell culture medium was prepared for each assay plate with 100 μls per well. For the doxycycline-induced 41o-cells, doxycycline for both the assay plate and the medium dilution plate was added at 0.0005 mg/ml to the medium.
Both cell lines were plated for the assay at 30 uls per 384-well at 3.4×10^e5 cells per ml (˜10K cells/well). H441 cells were plated on opaque, white, Corning plate 3704. 41o-cells were plated on collagen-coated opaque, white, Corning plate 356665. For 41o-cells, doxycycline was added to the medium.
Using FX (Beckman) protocol, 10 uls diluted compound or medium was added per well to the Assay Plate as: 2 μls DMSO Dilution plate well is diluted in 100 uls of the Medium Dilution Plate well, mixed, and 10 uls is transferred to the Assay Plate.
The final assay dilution series is 24.5, 12.3, 6.1, 3.1, 1.5, 0.8, 0.4, 0.2, 0.1, 0.05, 0.02, 0.01, 0.006, 0.003, 0.001 and 0 μM. The 41o-assay plates were incubated at 37° C. w/CO2, the H441 assay plates were incubated at 27° C. w/CO2, each overnight for two nights.
After being brought to room temperature, the assay plate liquid was removed. 30 μls of Luminata Forte (Millipore ELLUF0100) was added per well and incubated at room temperature for 10 min. The plates were then read on a Topcount, protocol LumiMatti (CPS, luminescence). The data was analyzed for % of maximum, maximum VX809 signal, and EC50 using Pearl and SPEED tools.

T1 sequence (P13569 with tags, fused parts or gaps DEL508-508): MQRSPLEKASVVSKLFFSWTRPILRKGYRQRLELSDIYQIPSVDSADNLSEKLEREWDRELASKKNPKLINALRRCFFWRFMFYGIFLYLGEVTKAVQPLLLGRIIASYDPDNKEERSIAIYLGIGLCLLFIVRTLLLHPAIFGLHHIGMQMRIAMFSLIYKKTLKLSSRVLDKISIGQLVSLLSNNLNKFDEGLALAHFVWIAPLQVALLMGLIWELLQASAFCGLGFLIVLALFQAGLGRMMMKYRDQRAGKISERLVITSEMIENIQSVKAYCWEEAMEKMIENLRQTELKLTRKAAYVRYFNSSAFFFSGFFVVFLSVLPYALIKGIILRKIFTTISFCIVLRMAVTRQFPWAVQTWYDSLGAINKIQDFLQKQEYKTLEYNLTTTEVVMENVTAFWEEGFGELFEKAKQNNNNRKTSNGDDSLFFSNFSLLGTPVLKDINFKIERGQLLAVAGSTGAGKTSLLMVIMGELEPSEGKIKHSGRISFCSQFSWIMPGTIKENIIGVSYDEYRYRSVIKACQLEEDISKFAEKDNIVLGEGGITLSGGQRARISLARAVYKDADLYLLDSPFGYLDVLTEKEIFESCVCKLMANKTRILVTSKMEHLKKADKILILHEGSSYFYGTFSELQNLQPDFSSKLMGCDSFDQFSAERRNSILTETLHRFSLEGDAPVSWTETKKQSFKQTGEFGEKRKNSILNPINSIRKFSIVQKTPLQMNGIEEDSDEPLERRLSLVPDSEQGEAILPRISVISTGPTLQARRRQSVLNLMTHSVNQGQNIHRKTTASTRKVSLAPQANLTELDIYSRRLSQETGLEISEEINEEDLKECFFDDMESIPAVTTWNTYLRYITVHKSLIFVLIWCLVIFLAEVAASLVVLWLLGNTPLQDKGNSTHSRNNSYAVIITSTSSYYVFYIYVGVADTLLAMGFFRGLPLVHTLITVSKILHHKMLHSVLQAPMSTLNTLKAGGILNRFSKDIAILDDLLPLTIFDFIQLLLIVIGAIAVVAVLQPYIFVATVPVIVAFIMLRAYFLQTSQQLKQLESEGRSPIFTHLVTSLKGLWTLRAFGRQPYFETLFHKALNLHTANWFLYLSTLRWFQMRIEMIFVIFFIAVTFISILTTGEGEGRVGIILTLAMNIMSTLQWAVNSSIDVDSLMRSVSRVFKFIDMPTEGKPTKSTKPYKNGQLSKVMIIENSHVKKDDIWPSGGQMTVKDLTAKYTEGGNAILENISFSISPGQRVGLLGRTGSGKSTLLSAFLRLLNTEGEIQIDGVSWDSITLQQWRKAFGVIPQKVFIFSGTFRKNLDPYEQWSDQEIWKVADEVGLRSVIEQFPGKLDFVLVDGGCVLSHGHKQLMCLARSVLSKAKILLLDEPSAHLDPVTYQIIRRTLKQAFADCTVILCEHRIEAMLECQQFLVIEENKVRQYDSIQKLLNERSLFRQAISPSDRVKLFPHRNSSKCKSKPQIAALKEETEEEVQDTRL

Structure (SMILES)	EC50 [nM]	Emax [%]
O=C(N[C@H](C(=O)O)[C@]12C[C@H]3C[C@](O)(C[C@](Cl)(C3)C1)C2)c1ccc2ccccc2c1OCc1ccc(OC(F)(F)F)cc1 [compound 80, (S)-2-((1S,3S,5R,7S)-3-chloro-5-hydroxyadamantan-1-yl)-2-(1-((4-(trifluoromethoxy)benzyl)oxy)-2-naphthamido)acetic acid]	78	184
O=C(N[C@H](C(=O)O)C12CC3CC(Cl)(CC(Cl)(C3)C1)C2)c1ccc2ccccc2c1OCc1ccc(SC(F)(F)F)cc1 [compound 81]	113	158
CC12CC3(C)CC(C)(C1)CC(C(NC(=O)c1ccc4ccccc4c1OCc1ccc(OC(F)(F)F)cc1)C(=O)O)(C2)C3 (centres unmarked) [compound 82]	201	304
COc1ccc2c(OCc3ccc(SC(F)(F)F)cc3)c(C(=O)N[C@H](C(=O)O)C34CC5CC(CC(C5)C3)C4)ccc2c1 [compound 83]	947	16.4
O=C(N[C@H](C(=O)O)C12CC3CC(CC(C3)C1)C2)c1ccc2cccnc2c1OCc1ccc(OC(F)(F)F)cc1 [compound 84]	660	149
COC12CC3CC(C1)CC([C@H](NC(=O)c1ccc4ccccc4c1OCc1ccc(C(F)(F)F)cc1)C(=O)O)(C3)C2 [compound 85]	375	131
COc1c(F)c(COc2c(C(=O)N[C@H](C(=O)O)C34CC5CC(CC(C5)C3)C4)ccc3ccccc23)c(F)c(F)c1C(F)(F)F [compound 86]	526	24
CCOC(=O)[C@H](C)OC12CC3CC(C1)CC([C@H](NC(=O)c1ccc4cc(F)ccc4c1OCc1ccc(C(F)(F)F)cc1)C(=O)O)(C3)C2 [compound 87]	287	96.2
O=C(N[C@H](C(=O)O)C12CC3CC(CC(C3)C1)C2)c1ccc2cc(F)ccc2c1OCc1ccc(OC(F)(F)F)cc1 [compound 88]	–	-9.7
O=C(N[C@H](C(=O)O)C12CC3CC(CC(C3)C1)C2)c1ccc2ccccc2c1OCc1ccc(Cl)c(Cl)c1 [compound 89]	350	204
CC12CC3(C)CC(C)(C1)CC(C(NC(=O)c1ccc4ccccc4c1OCC1CCC(F)(F)CC1)C(=O)O)(C2)C3 (centres unmarked) [compound 90]	1010	165
O=C(NC(C(=O)O)C12CC3CC(CC(OCC(Cl)Cl)(C3)C1)C2)c1ccc2cc(F)ccc2c1OCc1ccc(C(F)(F)F)cc1 (centres unmarked) [compound 91]	441	110
NC12CC3CC(C1)CC([C@H](NC(=O)c1ccc4ccccc4c1OCc1ccc(C(F)(F)F)cc1)C(=O)O)(C3)C2 [compound 92]	–	-1.3
O=C(N[C@H](C(=O)O)C12CC3CC(CC(C3)C1)C2)c1sc2ccccc2c1OCc1ccc(OC(F)(F)F)cc1 [compound 93]	908	108
O=C(N[C@H](C(=O)O)C12CC3CC(CC(C3)C1)C2)c1sc2ccccc2c1OCC1CCCCC1 [compound 94]	915	257
O=C(N[C@H](C(=O)O)C12CC3CC(CC(C3)C1)C2)c1sc2ccccc2c1OCc1nc2ccccc2s1 [compound 95]	939	156

Structure (SMILES)	EC50 [nM]	Emax [%]
O=C(N[C@H](C(=O)O)C12CC3CC(CC(C3)C1)C2)c1ccc2ccccc2c1OCc1ccc(C(F)(F)F)cc1 [compound 96, (2S)-2-(1-adamantyl)-2-[[1-[[4-(trifluoromethyl)phenyl]methoxy]naphthalene-2-carbonyl]amino]acetic acid]	398	180
O=C(N[C@H](C(=O)O)C12CC3CC(CC(C3)C1)C2)c1ccc2ccccc2c1OCc1nc(C(F)(F)F)cs1 [compound 100, (2S)-2-(1-adamantyl)-2-[[1-[[4-(trifluoromethyl)thiazol-2-yl]methoxy]naphthalene-2-carbonyl]amino]acetic acid]	2880	55.8
O=C(N[C@H](C(=O)O)C12CC3CC(CC(C3)C1)C2)c1ccc2ccccc2c1OCC#CC1CC1 [compound 101, (2S)-2-(1-adamantyl)-2-[[1-(3-cyclopropylprop-2-ynoxy)naphthalene-2-carbonyl]amino]acetic acid]	2700	145
O=C(N[C@H](C(=O)O)C12CC3CC(CC(C3)C1)C2)c1ccc2ccccc2c1OCC1(C(F)(F)F)CC1 [compound 102, (2S)-2-(1-adamantyl)-2-[[1-[[1-(trifluoromethyl)cyclopropyl]methoxy]naphthalene-2-carbonyl]amino]acetic acid]	18000	53.1
CC(C)Oc1ccc2c(OCc3ccc(C(F)(F)F)cc3)c(C(=O)N[C@H](C(=O)O)C34CC5CC(CC(C5)C3)C4)ccc2c1 [compound 103, (2S)-2-(1-adamantyl)-2-[[6-isopropoxy-1-[[4-(trifluoromethyl)phenyl]methoxy]naphthalene-2-carbonyl]amino]acetic acid]	397	30.2
O=C(N[C@H](C(=O)O)C12CC3CC(CC(C3)C1)C2)c1ccc2sccc2c1OCC1CCCCC1 [compound 104, (2S)-2-(1-adamantyl)-2-[[4-(cyclohexylmethoxy)benzothiophene-5-carbonyl]amino]acetic acid]	1230	228
O=C(N[C@H](C(=O)O)C12CC3CC(CC(O)(C3)C1)C2)c1ccc2sccc2c1OCc1ccc(C(F)(F)F)cc1 [compound 105, (2S)-2-(3-hydroxy-1-adamantyl)-2-[[4-[[4-(trifluoromethyl)phenyl]methoxy]benzothiophene-5-carbonyl]amino]acetic acid]	3550	150
O=C(N[C@H](C(=O)O)C12CC3CC(CC(C3)C1)C2)c1ccc2sccc2c1OCC1CCC(F)(F)CC1 [compound 106, (2S)-2-(1-adamantyl)-2-[[4-[(4,4-difluorocyclohexyl)methoxy]benzothiophene-5-carbonyl]amino]acetic acid]	3620	156
O=C(N[C@H](C(=O)O)C12CC3CC(CC(C3)C1)C2)c1ccc2sccc2c1OCc1ccc(OC(F)F)cc1 [compound 107, (2S)-2-(1-adamantyl)-2-[[4-[[4-(difluoromethoxy)phenyl]methoxy]benzothiophene-5-carbonyl]amino]acetic acid]	–	-7.7
O=C(N[C@H](C(=O)O)C12CC3CC(CC(O)(C3)C1)C2)c1ccc2sccc2c1OCC1CCC(F)(F)CC1 [compound 108, (2S)-2-[[4-[(4,4-difluorocyclohexyl)methoxy]benzothiophene-5-carbonyl]amino]-2-(3-hydroxy-1-adamantyl)acetic acid]	11400	78.4
O=C(N[C@H](C(=O)O)C12CC3CC(CC(O)(C3)C1)C2)c1ccc2sccc2c1OCc1ccc(OC(F)(F)F)cc1 [compound 109, (2S)-2-(3-hydroxy-1-adamantyl)-2-[[4-[[4-(trifluoromethoxy)phenyl]methoxy]benzothiophene-5-carbonyl]amino]acetic acid]	1760	121
O=C(N[C@H](C(=O)O)C12CC3CC(CC(C3)C1)C2)c1ccc2sccc2c1OCc1ccc(Cl)c(Cl)c1 [compound 110, (2S)-2-(1-adamantyl)-2-[[4-[(3,4-dichlorophenyl)methoxy]benzothiophene-5-carbonyl]amino]acetic acid]	382	173
O=C(N[C@H](C(=O)O)C12CC3CC(CC(C3)C1)C2)c1ccc2sccc2c1OCc1ccc(OC(F)(F)F)cc1 [compound 111, (2S)-2-(1-adamantyl)-2-[[4-[[4-(trifluoromethoxy)phenyl]methoxy]benzothiophene-5-carbonyl]amino]acetic acid]	261	165
O=C(N[C@H](C(=O)O)C12CC3CC(CC(C3)C1)C2)c1ccc2sccc2c1OCc1ccc(C(F)(F)F)cc1 [compound 112, (2S)-2-(1-adamantyl)-2-[[4-[[4-(trifluoromethyl)phenyl]methoxy]benzothiophene-5-carbonyl]amino]acetic acid]	360	190
O=C(N[C@H](C(=O)O)C12CC3CC(CC(C3)C1)C2)c1ccc2sccc2c1OCc1nc2ccccc2s1 [compound 113, (2S)-2-(1-adamantyl)-2-[[4-(1,3-benzothiazol-2-ylmethoxy)benzothiophene-5-carbonyl]amino]acetic acid]	596	184
